Patent US6911469B2, “Sulfonamide compounds and pharmaceutical use thereof” (Fujisawa Pharmaceutical Co., Ltd., priority 1997, dated 2005)

| Compound | melting point |
| --- | --- |
| CCCCS(=O)(=O)NC(=O)c1ccc2c(c1)CN(Cc1ccc(Cl)cc1Cl)C(C)=N2.Cl | 258 °C (dec.) |
| CCCCCS(=O)(=O)NC(=O)c1ccc2c(c1)N(Cc1ccc(Cl)cc1Cl)C(C)=NC2.Cl | 184 to 186 °C |
| CCCCCS(=O)(=O)NC(=O)c1ccc2sc(C)c(Cc3ccc(Cl)c(Cl)c3)c2c1 [Example 1, 3-(3,4-dichlorobenzyl)-2-methyl-5-(n-pentanesulfonyl-carbamoyl)benzo[b]thiophene] | 159 to 160 °C |
| CCCCCS(=O)(=O)NC(=O)c1ccc2sc(C)c(Cc3cccc(Cl)c3Cl)c2c1 [Example 2, 3-(2,3-dichlorobenzyl)-2-methyl-5-(n-pentanesulfonylcarbamoyl)benzo[b]thiophene] | 196 to 197 °C |
| CCCCCS(=O)(=O)NC(=O)c1ccc2sc(C)c(Cc3cc(Cl)ccc3Cl)c2c1 [Example 3, 3-(2,5-dichlorobenzyl)-2-methyl-5-(n-pentanesulfonylcarbamoyl)benzo[b]thiophene] | 147 to 148 °C |
| CCCCCS(=O)(=O)NC(=O)c1ccc2nc(C)n(Cc3ccc(Cl)cc3Cl)c2n1 [Example 8-1, 3-(2,4-dichlorobenzyl)-2-methyl-5-(n-pentanesulfonylcarbamoyl)-3H-imidazo[4,5-b]pyridine] | 174 to 175 °C |
| CCCCS(=O)(=O)NC(=O)c1ccc2nc(C)n(Cc3ccc(Cl)cc3Cl)c2n1 [Example 8-2, 5-(n-butanesulfonylcarbamoyl)-3-(2,4-dichlorobenzyl)-2-methyl-3H-imidazo[4,5-b]pyridine] | 153 to 154 °C |
| Cc1nc2ccc(C(=O)NS(=O)(=O)c3ccccc3)nc2n1Cc1ccc(Cl)cc1Cl [Example 8-3, 5-benzenesulfonylcarbamoyl-3-(2,4-dichlorobenzyl)-2-methyl-3H-imidazo[4,5-b]pyridine] | 193 to 194 °C |
| CCCCCS(=O)(=O)NC(=O)c1ccc2nc(C)n(Cc3ccc(-c4ccccc4)cc3Cl)c2n1 [Example 9, 3-(2-chloro-4-phenylbenzyl)-2-methyl-5-(n-pentanesulfonylcarbamoyl)-3H-imidazo[4,5-b]pyridine] | 155 to 156 °C |
| CCCCCS(=O)(=O)NC(=O)c1ccc2nc(C)n(Cc3ccc4ccccc4c3Br)c2n1 [Example 10, 3-(1-bromo-2-naphthyl)methyl-2-methyl-5-(n-pentanesulfonylcarbamoyl)-3H-imidazo[4,5-b]pyridine] | 200 to 201 °C |
| CCCCCS(=O)(=O)NC(=O)c1ccc2nc(C)n(Cc3ccc(-c4ccccc4)cc3)c2n1 [Example 11, 2-methyl-5-(n-pentanesulfonyl-carbamoyl)-3-(4-phenylbenzyl)-3H-imidazo[4,5-b]pyridine] | 170 to 171 °C |
| CCCCCS(=O)(=O)NC(=O)c1ccc2nc(C)n(Cc3ccc(Br)cc3Cl)c2n1 [Example 12-1, 3-(4-bromo-2-chlorobenzyl)-2-methyl-5-(n-pentanesulfonylcarbamoyl)-3H-imidazo[4,5-b]pyridine] | 183 to 184 °C |
| CCCCS(=O)(=O)NC(=O)c1ccc2nc(C)n(Cc3ccc(Br)cc3Cl)c2n1 [Example 12-2, 3-(4-bromo-2-chlorobenzyl)-5-(n-butanesulfonylcarbamoyl)-2-methyl-3H-imidazo[4,5-b]pyridine] | 165 to 166 °C |
| Cc1nc2ccc(C(=O)NS(=O)(=O)c3ccccc3)nc2n1Cc1ccc(Br)cc1Cl [Example 12-3, 5-(benzenesulfonylcarbamoyl)-3-(4-bromo-2-chlorobenzyl)-2-methyl-3H-imidazo[4,5-b]pyridine] | 193 to 194 °C |
| CCCCCS(=O)(=O)NC(=O)c1ccc2nc(C)n(Cc3ccc(Cl)cc3Br)c2n1 [Example 13-1, 3-(2-bromo-4-chlorobenzyl)-2-methyl-5-(n-pentanesulfonylcarbamoyl)-3H-imidazo[4,5-b]pyridine] | 167 to 168 °C |
| Cc1nc2ccc(C(=O)NS(=O)(=O)c3ccccc3)nc2n1Cc1ccc(Cl)cc1Br [Example 13-2, 5-(benzenesulfonylcarbamoyl)-3-(2-bromo-4-chlorobenzyl)-2-methyl-3H-imidazo[4,5-b]pyridine] | 189 to 190 °C |
| CCCCS(=O)(=O)NC(=O)c1ccc2nc(C)n(Cc3ccc(Cl)cc3Br)c2n1 [Example 13-3, 3-(2-bromo-4-chlorobenzyl)-5-(n-butanesulfonylcarbamoyl)-2-methyl-3H-imidazo[4,5-b]pyridine] | 145 to 146 °C |
| CCCCCS(=O)(=O)NC(=O)c1cc(C)c2nc(CC)n(Cc3ccc(Cl)cc3Cl)c2n1 [Example 15, 3-(2,4-dichlorobenzyl)-2-ethyl-7-methyl-5-(n-pentanesulfonylcarbamoyl)-3H-imidazo[4,5-b]pyridine] | 178 to 180 °C |
| CCCCCS(=O)(=O)NC(=O)c1cc(C)c2nc(CC)n(Cc3ccc(-c4ccccc4)cc3)c2n1 [Example 16, 2-ethyl-7-methyl-5-(n-pentanesulfonylcarbamoyl)-3-(4-phenylbenzyl)-3H-imidazo[4,5-b]pyridine] | 210 to 211 °C |

| Compound | melting point |
| --- | --- |
| CCCCCS(=O)(=O)NC(=O)c1cnc2nc(C)n(Cc3ccc(Cl)cc3Cl)c2c1 [Example 25, 1-(2,4-dichlorobenzyl)-2-methyl-6-(n-pentanesulfonylcarbamoyl)-1H-imidazo[4,5-b]pyridine] | 103 to 106 °C |
| CCCCCS(=O)(=O)NC(=O)c1ccc2[nH]c(C)c(Cc3ccc(Cl)cc3Cl)c2n1 [Example 26-1, 3-(2,4-dichlorobenzyl)-2-methyl-5-(n-pentanesulfonylcarbamoyl)pyrrolo[3,2-b]pyridine] | 147 to 148 °C |
| Cc1[nH]c2ccc(C(=O)NS(=O)(=O)c3ccccc3)nc2c1Cc1ccc(Cl)cc1Cl [Example 26-2, 3-(2,4-dichlorobenzyl)-2-methyl-5-(benzenesulfonylcarbamoyl)pyrrolo[3,2-b]pyridine] | > 250 °C |
| CCCCCS(=O)(=O)NC(=O)c1ccc2nc(C)n(Cc3ccc(Cl)cc3OC)c2n1 [Example 27, 3-(4-chloro-2-methoxybenzyl)-2-methyl-5-(n-pentanesulfonylcarbamoyl)-3H-imidazo[4,5-b]pyridine] | 168 to 170 °C |
| CCCCCS(=O)(=O)NC(=O)c1ccc2nc(C)n(Cc3ccc(Cl)cc3C)c2n1 [Example 28-1, 3-(4-chloro-2-methylbenzyl)-2-methyl-5-(n-pentanesulfonylcarbamoyl)-3H-imidazo[4,5-b]pyridine] | 155 to 157 °C |
| Cc1cc(Cl)ccc1Cn1c(C)nc2ccc(C(=O)NS(=O)(=O)c3ccccc3)nc21 [Example 28-2, 5-benzenesulfonylcarbamoyl-3-(4-chloro-2-methylbenzyl)-2-methyl-3H-imidazo[4,5-b]pyridine] | 235 to 237 °C |
| Cc1nc2ccc(C(=O)NS(=O)(=O)c3ccccc3)nc2n1Cc1ccc(-c2ccccc2)cc1Cl [Example 29-1, 5-benzenesulfonylcarbamoyl-3-(2-chloro-4-phenylbenzyl)-2-methyl-3H-imidazo[4,5-b]pyridine] | 204 to 214 °C |
| CCCCS(=O)(=O)NC(=O)c1ccc2nc(C)n(Cc3ccc(-c4ccccc4)cc3Cl)c2n1 [Example 29-2, 5-(n-butanesulfonylcarbamoyl)-3-(2-chloro-4-phenylbenzyl)-2-methyl-3H-imidazo[4,5-b]pyridine] | 199 to 200 °C |
| Cc1oc2ccc(C(=O)NS(=O)(=O)c3ccccc3)cc2c1Cc1ccc(Cl)cc1Cl [Example 30-2, 5-(benzenesulfonylcarbamoyl)-3-(2,4-dichlorobenzyl)-2-methylbenzo[b]furan] | 208.5 to 209.5 °C |
| CCCCCS(=O)(=O)NC(=O)c1cc(C)cc2c(C)c(Cc3ccc(Cl)cc3Cl)oc12 [Example 31-1, 2-(2,4-dichlorobenzyl)-3,5-dimethyl-7-(1-n-pentanesulfonylcarbamoyl)benzo[b]furan] | 164 to 165.5 °C |
| Cc1cc(C(=O)NS(=O)(=O)c2ccccc2)c2oc(Cc3ccc(Cl)cc3Cl)c(C)c2c1 [Example 31-2, 7-(benzenesulfonylcarbamoyl)-2-(2,4-dichlorobenzyl)-3,5-dimethylbenzo[b]furan] | 214 to 215 °C |
| CCCCCS(=O)(=O)NC(=O)c1ccc2sc(C)c(Cc3ccc(Cl)cc3Cl)c2c1 [Example 37, 3-(2,4-dichlorobenzyl)-2-methyl-5-(1-n-pentanesulfonylcarbamoyl)benzo[b]thiophene] | 158.5 to 159.3 °C |
| CCCCCS(=O)(=O)NC(=O)c1cccc2c(CC)c(Cc3ccc(Cl)cc3Cl)sc12 [Example 38-1, 2-(2,4-dichlorobenzyl)-3-ethyl-7-(1-n-pentanesulfonylcarbamoyl)benzo[b]thiophene] | 176 to 178 °C |
| CCc1c(Cc2ccc(Cl)cc2Cl)sc2c(C(=O)NS(=O)(=O)c3ccccc3)cccc12 [Example 38-2, 7-(benzenesulfonylcarbamoyl)-2-(2,4-dichlorobenzyl)-3-ethylbenzo[b]thiophene] | 181 to 183 °C |
| CCCCS(=O)(=O)NC(=O)c1ccc2c(c1)n(Cc1ccc(Cl)cc1Cl)c(=O)n2C [Example 39, 6-(1-n-butanesulfonylcarbamoyl)-1-(2,4-dichlorobenzyl)-3-methyl-2-benzimidazolone] | 358 to 360 °C |
| CCCCS(=O)(=O)NC(=O)c1ccc2nnn(Cc3ccc(Cl)cc3Cl)c2c1 [Example 40, 6-(1-n-butanesulfonyl-carbamoyl)-1-(2,4-dichlorobenzyl)benzotriazole] | 158 to 160 °C |
| CCCCS(=O)(=O)NC(=O)c1ccc2c(=O)n(CC)c(=O)n(Cc3ccc(Cl)cc3Cl)c2c1 [Example 42, 7-(1-n-butanesulfonyl-carbamoyl)-1-(2,4-dichlorobenzyl)-3-ethyl-2,4(1H,3H)-quinazolinedione] | 212 to 214 °C |
| CCCCS(=O)(=O)NC(=O)c1ccc2c(=O)n(Cc3ccc(Cl)cc3Cl)c(=O)n(C)c2c1 [Example 43, 7-(1-n-butanesulfonyl-carbamoyl)-3-(2,4-dichlorobenzyl)-1-methyl-2,4(1H,3H)-quinazolinedione] | 212 to 214 °C |
| CCCCS(=O)(=O)NC(=O)c1ccc2c(=O)n(Cc3ccc(Cl)cc3Cl)cnc2c1 [Example 44, 7-(1-n-butanesulfonyl-carbamoyl)-3-(2,4-dichlorobenzyl)-4(3H)-quinazolinone] | 245 to 247 °C |
